Reference: BindingDB's records for doi:10.1021/acs.jmedchem.0c00909 (F. Hoffmann-La Roche, 2020)

Molecular target: Neurogenic locus notch homolog protein 1 (Homo sapiens, UniProt P46531)
Test: Inhibition of human Notch1 expressed in HEK293 cells coexpressing luciferase reporter measured after 20 hrs by steady-glo chemiluminescence assay

Neurogenic locus notch homolog protein 1, sequence (P46531 whole entry): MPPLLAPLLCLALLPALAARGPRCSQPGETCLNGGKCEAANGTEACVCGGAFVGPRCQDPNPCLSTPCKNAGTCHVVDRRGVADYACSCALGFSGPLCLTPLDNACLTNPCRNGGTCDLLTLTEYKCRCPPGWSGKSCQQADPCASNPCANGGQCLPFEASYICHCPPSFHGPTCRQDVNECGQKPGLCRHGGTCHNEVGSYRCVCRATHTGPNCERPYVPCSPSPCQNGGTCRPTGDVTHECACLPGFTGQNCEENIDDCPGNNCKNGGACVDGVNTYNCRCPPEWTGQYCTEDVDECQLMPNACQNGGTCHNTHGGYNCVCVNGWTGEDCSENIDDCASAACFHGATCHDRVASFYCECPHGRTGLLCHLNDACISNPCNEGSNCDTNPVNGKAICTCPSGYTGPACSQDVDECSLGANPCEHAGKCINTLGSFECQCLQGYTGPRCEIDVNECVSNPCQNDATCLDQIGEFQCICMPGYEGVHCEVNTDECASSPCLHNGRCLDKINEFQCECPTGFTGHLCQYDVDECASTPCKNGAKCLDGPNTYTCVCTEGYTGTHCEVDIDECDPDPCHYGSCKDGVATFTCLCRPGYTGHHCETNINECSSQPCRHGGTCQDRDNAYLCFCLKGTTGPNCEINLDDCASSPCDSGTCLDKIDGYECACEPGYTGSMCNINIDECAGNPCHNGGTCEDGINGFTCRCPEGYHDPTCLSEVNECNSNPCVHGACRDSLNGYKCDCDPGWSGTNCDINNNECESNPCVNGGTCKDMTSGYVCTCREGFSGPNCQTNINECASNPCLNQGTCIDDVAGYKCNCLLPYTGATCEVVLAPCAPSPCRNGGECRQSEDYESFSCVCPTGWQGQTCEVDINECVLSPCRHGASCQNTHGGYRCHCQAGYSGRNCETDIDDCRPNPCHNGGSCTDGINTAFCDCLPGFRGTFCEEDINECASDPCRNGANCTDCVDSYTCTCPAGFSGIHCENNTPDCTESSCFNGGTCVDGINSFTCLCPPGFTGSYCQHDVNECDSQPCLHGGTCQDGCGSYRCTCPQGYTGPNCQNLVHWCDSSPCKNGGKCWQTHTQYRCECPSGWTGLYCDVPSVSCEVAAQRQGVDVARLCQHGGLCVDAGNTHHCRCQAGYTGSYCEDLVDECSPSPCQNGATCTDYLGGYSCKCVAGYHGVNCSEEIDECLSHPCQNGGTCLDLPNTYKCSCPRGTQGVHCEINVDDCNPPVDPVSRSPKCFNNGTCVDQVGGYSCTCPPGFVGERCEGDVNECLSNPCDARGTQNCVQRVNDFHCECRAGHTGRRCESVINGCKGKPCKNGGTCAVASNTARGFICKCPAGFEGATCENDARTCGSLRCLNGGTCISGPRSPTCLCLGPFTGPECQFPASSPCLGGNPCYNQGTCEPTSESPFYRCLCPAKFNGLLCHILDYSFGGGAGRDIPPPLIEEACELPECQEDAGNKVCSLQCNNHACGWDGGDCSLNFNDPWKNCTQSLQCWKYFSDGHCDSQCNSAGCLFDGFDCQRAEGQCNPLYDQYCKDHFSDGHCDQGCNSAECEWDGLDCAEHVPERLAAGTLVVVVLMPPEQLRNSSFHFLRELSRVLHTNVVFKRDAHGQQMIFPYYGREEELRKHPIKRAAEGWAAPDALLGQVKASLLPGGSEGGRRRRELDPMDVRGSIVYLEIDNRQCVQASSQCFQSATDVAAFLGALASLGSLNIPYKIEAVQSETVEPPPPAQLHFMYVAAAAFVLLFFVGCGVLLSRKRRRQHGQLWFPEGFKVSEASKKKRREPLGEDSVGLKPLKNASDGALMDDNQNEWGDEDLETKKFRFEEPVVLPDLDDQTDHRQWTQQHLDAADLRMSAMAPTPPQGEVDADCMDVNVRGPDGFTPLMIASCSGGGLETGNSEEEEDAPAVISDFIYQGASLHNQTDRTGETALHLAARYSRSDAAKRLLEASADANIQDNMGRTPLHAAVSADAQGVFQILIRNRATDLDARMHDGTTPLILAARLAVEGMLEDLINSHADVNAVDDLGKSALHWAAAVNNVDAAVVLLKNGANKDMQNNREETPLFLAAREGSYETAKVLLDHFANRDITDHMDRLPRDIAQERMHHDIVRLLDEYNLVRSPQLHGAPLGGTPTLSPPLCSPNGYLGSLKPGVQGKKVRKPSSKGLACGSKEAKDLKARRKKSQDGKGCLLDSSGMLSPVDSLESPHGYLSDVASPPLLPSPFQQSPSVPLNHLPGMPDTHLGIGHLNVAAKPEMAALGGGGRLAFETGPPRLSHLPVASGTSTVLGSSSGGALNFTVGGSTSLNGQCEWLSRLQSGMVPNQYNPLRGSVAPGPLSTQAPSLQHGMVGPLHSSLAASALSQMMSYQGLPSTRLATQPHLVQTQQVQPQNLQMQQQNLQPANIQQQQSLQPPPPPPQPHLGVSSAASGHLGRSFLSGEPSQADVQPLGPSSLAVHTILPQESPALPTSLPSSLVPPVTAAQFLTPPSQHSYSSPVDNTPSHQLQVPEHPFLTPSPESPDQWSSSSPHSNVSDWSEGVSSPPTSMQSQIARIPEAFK

For `Cc1nnc(N2C[C@H]3CC[C@@H](C2)[C@@H]3Nc2nc3c(O[C@@H](C)C(F)(F)F)ccc(C(F)(F)F)n3n2)o1`, which IC50 is on record?
The IC50 was greater than 10 µM.

How did the IC50 turn out when `Cc1cc(N2C[C@H]3CC[C@@H](C2)[C@@H]3Nc2nc3c(OCC(F)F)ccc(C(F)(F)F)n3n2)ncn1` was run?
Its IC50 is greater than 10 µM.

How did the IC50 turn out when `Cc1noc(N2C[C@H]3CC[C@@H](C2)[C@@H]3Nc2nc3c(OCC(F)(F)F)ccc(C(F)(F)F)n3n2)n1` was run?
Its IC50 is greater than 10 µM.
